The source of these data is patent US5300672A (priority 1992, dated 1994).

In general, MIC refers to the least concentration at which growth counts as inhibited.

Where two headings read alike, the source gives them in different places. Where only a bound is given, the exact number is not on record here.

For one assay, the system named is Pseudomonas fluorescens. Put plainly: Alternate Minimum Inhibitory Concentrations Test (Table 4), Ps.fl. The assay is classed as cell-based. To be noted: Pseudomonas fluorescens; Table 4 alternate test; 250 ppm to 0.8 ppm in TSB, 72 hours, 30° C.; read-out: MIC Ps.fl. In a few lines:
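Broth microdilution MIC in TSB: compound (from acetone stock) serially diluted 1:1 from 250 ppm to 0.8 ppm, inoculated with diluted 24 h culture. After 3 days at 30 °C, the lowest concentration with no growth was recorded as MIC.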

Assay [1] has as its system Pseudoperonospora cubensis. Description: whole plant or invertebrate. The format is in vivo. The conditions noted are these: Pseudoperonospora cubensis, in Cucumis sativus, 168 h; read-out: % Control CDM.
For a further assay, the system named is Piricularia oryzae. Put plainly: whole plant or invertebrate. The assay is classed as in vivo. The conditions noted are these: Pyricularia oryzae; for pest or weed control at 50 ppm: read-out: % Control RB, application rate 50 ppm.
Assay [2] concerns Pellicularia filamentosa (f. sp. sasiki). Put plainly: whole plant or invertebrate. The format is in vivo. The conditions noted are these: 120 h; read-out: % Control RSB.
A further assay has as its system Phytophthora infestans. Description: whole plant or invertebrate. The format is in vivo. To be noted: Phytophthora infestans, in Solanum lycopersicum, 96 h.
The subject of assay [3] is Puccinia recondita (f. sp. tritici Races PKB and PLD). Put plainly: whole plant or invertebrate. To be noted: Puccinia recondita, 240 h; read-out: % Control WLR. The format is in vivo.
Assay [4] concerns Erysiphe graminis (f. sp. tritici). Put plainly: whole plant or invertebrate. To be noted: Blumeria graminis; read-out: % Control WPM. The format is in vivo.
The subject of assay [5] is Puccinia graminis (f. sp. tritici Race 15B-2). Put plainly: whole plant or invertebrate. The assay is classed as in vivo. To be noted: Puccinia graminis, 336 h, read-out: % Control WSR.
Setting [6] is: read-out: % Control RB, application rate 100 ppm.
Setting [7] is: read-out: % Control RB, application rate 200 ppm.
The mark [8] stands for this setting: read-out: % Control TLB, application rate 200 ppm.
Setting [9] is: read-out: % Control TLB, application rate 100 ppm.

For `CCCCCCCCNC(=O)/C=C\SC(=O)C1=CC(=O)CC(C)(C)O1` [Compound 89, N-octyl-cis-3-[(3,4-dihydro-2,2-dimethyl-4-oxo-2H-pyran-6-carbonyl)thio]acrylamide], in the assay with Pseudomonas fluorescens, the minimum inhibitory concentration (MIC) was greater than 250 mg/L. For the same compound, the pest or weed control at 200 ppm in assay [1] came to 70%; with Piricularia oryzae (read-out: % Control RB), 95%; in assay [2] it was 0%; with Phytophthora infestans (read-out: % Control TLB), 90%; in assay [3], 90%; in assay [4], 0%. Also, in assay [5], the pest or weed control at 100 ppm stood at 80%.

Take `CCCCCCCCNC(=O)/C=C\SC(=O)CC1C=CCC1` (centres unmarked) [Compound 93]: the MIC with Pseudomonas fluorescens is greater than 250 mg/L. Besides, the pest or weed control at 200 ppm in assay [1] was found to be 99%; in assay [2], 0%; in the assay on Phytophthora infestans (read-out: % Control TLB) it was 90%; in assay [3], 50%; in assay [4], 75%. In addition, the pest or weed control at 50 ppm with Piricularia oryzae stood at 90%. In addition, the pest or weed control at 100 ppm in assay [5] worked out at 50%.

For `CCCCCCCCNC(=O)/C=C\SC(=O)c1ccc(F)cc1` [Compound 3, N-octyl-cis-3-[(4-fluorobenzoyl)thio]acrylamide], in the assay on Pseudomonas fluorescens, the MIC was greater than 250 mg/L. In assay [1], the pest or weed control at 50 ppm came to 85%. Further, the pest or weed control at 100 ppm with Piricularia oryzae (setting [6]) turned out to be 80%; in assay [2] it was 0%; in the assay with Phytophthora infestans (read-out: % Control TLB), 90%; in assay [3] it was 0%; in assay [4] it was 0%. The pest or weed control at 200 ppm in assay [5] worked out at 75%.

With `CCCCCCCCNC(=O)/C=C\SC(=O)/C=C/c1ccco1` [Compound 68, N-octyl-cis-3-[(trans-3-(2-furan)propenoyl)thio]acrylamide], in the assay with Pseudomonas fluorescens, the MIC is greater than 250 mg/L. In addition, the pest or weed control at 12 ppm in assay [1] came out at 70%. Besides, the pest or weed control at 50 ppm with Piricularia oryzae worked out at 80%. Further, the pest or weed control at 200 ppm in assay [2] was found to be 0%; with Phytophthora infestans (read-out: % Control TLB) it was 90%; in assay [3], 0%; in assay [4], 0%; in assay [5], 90%.

Turning to `CCCCCC#CC(=O)S/C=C\C(=O)NCCCCCCCC` [Compound 86, N-octyl-cis-3-[(2-octynoyl)thio]acrylamide], in the assay with Pseudomonas fluorescens, the MIC is greater than 250 mg/L. In addition, the pest or weed control at 200 ppm was 85% in assay [1]; 0% in the assay with Piricularia oryzae (setting [7]); 0% in assay [2]; 90% in the assay on Phytophthora infestans (read-out: % Control TLB); 50% in assay [3]; 0% in assay [4]. For the same compound, in assay [5], the pest or weed control at 100 ppm was determined as 0%.

With `CCCCCCCCNC(=O)/C=C\SC(=O)COC` [Compound 87, N-octyl-cis-3-(methoxyacetylthio)acrylamide], in the assay with Pseudomonas fluorescens, the MIC is greater than 250 mg/L. The pest or weed control at 200 ppm in assay [1] amounted to 100%; with Piricularia oryzae (read-out: % Control RB), 95%; in assay [2], 0%; with Phytophthora infestans (read-out: % Control TLB) it was 90%; in assay [3], 80%. Also, the pest or weed control at 12 ppm in assay [4] was 50%. Also, the pest or weed control at 10 ppm in assay [5] is 50%.

For `CCCCCCCCNC(=O)/C=C\SC(=O)c1cccnc1Cl` [Compound 6, N-octyl-cis-3-[3-(2-chloropyridine)carbonylthio]acrylamide], in the assay on Pseudomonas fluorescens, the MIC is greater than 250 mg/L. In addition, the pest or weed control at 50 ppm in assay [1] came to 85%. Besides, the pest or weed control at 100 ppm in the assay on Piricularia oryzae (setting [6]) was found to be 50%; in assay [2], 0%; with Phytophthora infestans (read-out: % Control TLB) it was 90%; in assay [3], 0%; in assay [4] it was 0%. Besides, the pest or weed control at 200 ppm in assay [5] stood at 90%.

For `C/C=C/C=C/C(=O)S/C=C\C(=O)NCCCCCCCC` [Compound 59, N-octyl-cis-3-[(trans,trans-2,4-hexadienoyl)thio]acrylamide], in the assay with Pseudomonas fluorescens, the minimum inhibitory concentration (MIC) is greater than 250 mg/L. In addition, the figures for the pest or weed control at 50 ppm in assay [1] and in assay [2] were 70% and 50%, respectively. The pest or weed control at 200 ppm with Piricularia oryzae (setting [7]) was determined as 0%; with Phytophthora infestans (read-out: % Control TLB) it was 80%; in assay [3] it was 0%; in assay [4], 0%; in assay [5], 50%.

Take `CCCCCCCCNC(=O)/C=C\SC(=O)Cc1ccccc1` [Compound 12, N-octyl-cis-3-(phenylacetylthio)acrylamide]: in the assay with Pseudomonas fluorescens, the MIC is greater than 250 mg/L. In assay [1], the pest or weed control at 50 ppm is 85%. In addition, the pest or weed control at 200 ppm (in the assay on Piricularia oryzae (setting [7]); in assay [5]) was 90% in each case. Also, the pest or weed control at 100 ppm was 0% in assay [2], 90% in the assay with Phytophthora infestans (read-out: % Control TLB), 0% in assay [3] and 0% in assay [4].

Regarding `CCCCCCCCNC(=O)/C=C\SC(=O)CCCc1ccccc1` [Compound 80, N-octyl-cis-3-[(4-phenylbutanoyl)thio]acrylamide], the MIC in the assay with Pseudomonas fluorescens was greater than 250 mg/L. In addition, the pest or weed control at 50 ppm in assay [1] is 85%. Besides, the pest or weed control at 200 ppm in the assay on Piricularia oryzae (setting [7]) amounted to 50%; in assay [2], 50%; with Phytophthora infestans (setting [8]), 100%; in assay [3], 0%; in assay [4] it was 0%; in assay [5], 75%.

With `CCCCCCCCNC(=O)/C=C\SC(=O)/C(=C/c1ccccc1)c1ccccc1` [Compound 82, N-octyl-cis-3-[(cis-2,3-diphenylpropenoyl)thio]acrylamide], the MIC in the assay on Pseudomonas fluorescens is greater than 250 mg/L. The pest or weed control at 200 ppm came out at 0% in assay [1]; 90% in the assay with Piricularia oryzae (setting [7]); 0% in assay [2]; 0% in the assay with Phytophthora infestans (setting [8]); 0% in assay [4]. The pest or weed control at 50 ppm in assay [3] worked out at 50%. Besides, the pest or weed control at 100 ppm in assay [5] came out at 50%.

As to `CCCCCCCCNC(=O)/C=C\SC(=O)/C=C/c1ccccc1` [Compound 14, N-octyl-cis-3-[(trans-3-phenylprop-2-enoyl)thio]acrylamide], the MIC in the assay on Pseudomonas fluorescens is greater than 250 mg/L. The pest or weed control at 50 ppm in assay [1] was determined as 50%. Besides, the pest or weed control at 100 ppm in the assay on Piricularia oryzae (read-out: % Control RB) was 100%; in assay [2], 0%; with Phytophthora infestans (read-out: % Control TLB) it was 90%; in assay [3], 0%; in assay [4], 0%. Moreover, the pest or weed control at 200 ppm in assay [5] was 75%.

In the case of `CCCCCCCCNC(=O)/C=C\SC(=O)C(=O)OC` [Compound 30, N-octyl-cis-3-(methyloxalylthio)acrylamide], the MIC in the assay on Pseudomonas fluorescens was greater than 250 mg/L. Moreover, the pest or weed control at 50 ppm in assay [1] is 70%. Also, the pest or weed control at 100 ppm in the assay with Piricularia oryzae (setting [6]) turned out to be 0%; in assay [2] it was 0%; in the assay with Phytophthora infestans (read-out: % Control TLB), 80%; in assay [4], 0%. In assay [3], the pest or weed control at 25 ppm stood at 50%. The pest or weed control at 200 ppm in assay [5] worked out at 75%.

Regarding `CCCCCCCCNC(=O)/C=C\SC(=O)C(C)(C)C` [Compound 25, N-octyl-cis-3-[(1,1-dimethylpropanoyl)thio]acrylamide], the minimum inhibitory concentration (MIC) in the assay on Pseudomonas fluorescens was greater than 250 mg/L. Also, in assay [1], the pest or weed control at 50 ppm was found to be 85%. For the same compound, the pest or weed control at 100 ppm in the assay on Piricularia oryzae (setting [6]) is 0%; in assay [2] it was 0%; in the assay on Phytophthora infestans (setting [9]), 100%; in assay [3], 0%; in assay [4] it was 0%; in assay [5], 90%.

Take `CCCCCCCCNC(=O)/C=C\SC(=O)C1CCCCC1` [Compound 4, N-octyl-cis-3-(cyclohexanecarbonylthio)acrylamide]: the MIC with Pseudomonas fluorescens is greater than 250 mg/L. In assay [1], the pest or weed control at 50 ppm amounted to 99%. For the same compound, the pest or weed control at 100 ppm was found to be 80% in the assay on Piricularia oryzae (setting [6]); 0% in assay [2]; 90% with Phytophthora infestans (read-out: % Control TLB); 0% in assay [3]; 0% in assay [4]. The pest or weed control at 200 ppm in assay [5] was 50%.

Regarding `CCCCCCCCNC(=O)/C=C\SC(=O)c1ccc([N+](=O)[O-])cc1` [Compound 46, N-octyl-cis-3-[(4-nitrobenzoyl)thio]acrylamide], in the assay with Pseudomonas fluorescens, the minimum inhibitory concentration (MIC) was greater than 250 mg/L. For the same compound, the pest or weed control at 50 ppm in assay [1] was 99%. The pest or weed control at 200 ppm amounted to 75% in the assay on Piricularia oryzae (setting [7]) and 100% in assay [5]. Further, the pest or weed control at 100 ppm worked out at 95% in the assay with Phytophthora infestans (setting [9]) and 0% in assay [4]. For the same compound, the pest or weed control at 25 ppm in assay [3] stood at 80%.

For the compound `CCCCCCCCNC(=O)/C=C\SC(=O)c1ccc([N+](=O)[O-])c([N+](=O)[O-])c1` [Compound 112, N-octyl-cis-3-[(3,4-dinitrobenzoyl)thio]acrylamide], in the assay on Pseudomonas fluorescens, the MIC was greater than 250 mg/L. The pest or weed control at 200 ppm stood at 99% in assay [1], 0% in the assay on Piricularia oryzae (setting [7]), 50% in assay [3] and 0% in assay [4]. Moreover, the figures for the pest or weed control at 100 ppm (with Phytophthora infestans (read-out: % Control TLB); in assay [5]) were 90% and 50%, respectively.
